# Earlier results in patent US20040167197A1, “Compositions, combinations, and methods for treating cardiovascular conditions and other associated conditions” (priority 2003, published 2004).
# System: rat model of cardiac hypertrophy and dysfunction
smiles,measurement,value
COc1nccc(-c2c(-c3ccc(F)cc3)ncn2[C@H]2CC[C@H](O)CC2)n1 [trans-1-(4-hydroxycyclohexyl)-4-(4-fluorophenylmethoxypyridimidin-4-yl)imidazole],hypertensive end-organ damage,protected against
same,plasma tumor necrosis factor (TNF-α),reduced
same,survival,improved
